According to ChEMBL document CHEMBL5346923, “Novel pyridinium cationic pleuromutilin analogues overcoming bacterial multidrug resistance” (Eur J Med Chem, 2023):

How the values were obtained:
Assay type in all cases: functional
Escherichia coli [1] = test: Antibacterial activity against Escherichia coli ATCC 25922 assessed as inhibition of bacterial growth measured after 24 hrs by MH broth based assay
Bacillus subtilis = test: Antibacterial activity against Bacillus subtilis ATCC 6633 assessed as inhibition of bacterial growth measured after 24 hrs by MH broth based assay
Escherichia coli [2] = test: Antibacterial activity against Escherichia coli MG1655 assessed as inhibition of bacterial growth measured after 24 hrs by MH broth based assay
Klebsiella pneumoniae = test: Antibacterial activity against Klebsiella pneumonia CMCC (B) 46117 assessed as inhibition of bacterial growth measured after 24 hrs by MH broth based assay
Streptococcus pneumoniae = test: Antibacterial activity against Streptococcus pneumoniae ATCC 49619 assessed as inhibition of bacterial growth measured after 24 hrs by MH broth based assay
Proteus = test: Antibacterial activity against Proteus CMCC (B) 49027 assessed as inhibition of bacterial growth measured after 24 hrs by MH broth based assay
Staphylococcus aureus [3] = test: Antibacterial activity against Staphylococcus aureus ATCC 29213 assessed as inhibition of bacterial growth measured after 24 hrs by MH broth based assay
Escherichia coli [4] = test: Antibacterial activity against Escherichia coli MG1655 harbouring acrB gene assessed as inhibition of bacterial growth measured after 24 hrs by MH broth based assay
Enterococcus = test: Antibacterial activity against vancomycin-resistant Enterococcus ATCC 700221 assessed as inhibition of bacterial growth measured after 24 hrs by MH broth based assay
Staphylococcus aureus [5] = test: Antibacterial activity against methicillin-resistant Staphylococcus aureus ATCC 43300 assessed as inhibition of bacterial growth measured after 24 hrs by MH broth based assay
[6] = tested on: Staphylococcus epidermidis; test: Antibacterial activity against methicillin-resistant Staphylococcus epidermidis ATCC 51625 assessed as inhibition of bacterial growth measured after 24 hrs by MH broth based assay

SMILES | MIC (Escherichia coli [1]) [µg/mL] | MIC (Bacillus subtilis) [µg/mL] | MIC (Escherichia coli [2]) [µg/mL] | MIC (Klebsiella pneumoniae) [µg/mL] | MIC (Streptococcus pneumoniae) [µg/mL] | MIC (Proteus) [µg/mL] | MIC (Staphylococcus aureus [3]) [µg/mL] | MIC (Escherichia coli [4]) [µg/mL] | MIC (Enterococcus) [µg/mL] | MIC (Staphylococcus aureus [5]) [µg/mL] | MIC [6] [µg/mL]
C=C[C@]1(C)C[C@@H](OC(=O)CSc2cc[n+](COC)cc2)[C@]2(C)[C@H](C)CC[C@]3(CCC(=O)[C@H]32)[C@@H](C)[C@@H]1O.[I-] | 64 | 64 | 64 | 64 | 0.25 | > 64 | 0.25 | 1 | 32 | 0.25 | 0.5
C=C[C@]1(C)C[C@@H](OC(=O)CSc2cc[n+](CC3CCCO3)cc2)[C@]2(C)[C@H](C)CC[C@]3(CCC(=O)[C@H]32)[C@@H](C)[C@@H]1O.[I-] (stereo partly drawn) | 64 | 64 | 64 | 64 | 0.125 | > 64 | 1 | 2 | 64 | 1 | 0.25
C=C[C@]1(C)C[C@@H](OC(=O)CSc2cc[n+](CC#CC)cc2)[C@]2(C)[C@H](C)CC[C@]3(CCC(=O)[C@H]32)[C@@H](C)[C@@H]1O.[I-] | 64 | > 64 | 64 | 64 | < 0.031 | > 64 | 0.125 | 1 | 32 | 0.25 | 0.063
C=C[C@]1(C)C[C@@H](OC(=O)CSc2cc[n+](CCO)cc2)[C@]2(C)[C@H](C)CC[C@]3(CCC(=O)[C@H]32)[C@@H](C)[C@@H]1O.[I-] | 64 | 64 | 64 | 32 | 0.5 | 64 | 1 | 0.5 | 32 | 1 | 1
C=C[C@]1(C)C[C@@H](OC(=O)CSc2cc[n+](CCCCCCCCCC(=O)O)cc2)[C@]2(C)[C@H](C)CC[C@]3(CCC(=O)[C@H]32)[C@@H](C)[C@@H]1O.[I-] | > 64 | > 64 | > 64 | > 64 | 1 | > 64 | 4 | 32 | 64 | 4 | 2
C=C[C@]1(C)C[C@@H](OC(=O)CSc2cc[n+](CC(=O)N(Cc3ccccc3)Cc3ccccc3)cc2)[C@]2(C)[C@H](C)CC[C@]3(CCC(=O)[C@H]32)[C@@H](C)[C@@H]1O.[I-] | 64 | 16 | 64 | 32 | < 0.031 | > 64 | 0.25 | 4 | 64 | 0.25 | 0.063
C=C[C@]1(C)C[C@@H](OC(=O)CSc2cc[n+](Cc3ccc(C)cc3)cc2)[C@]2(C)[C@H](C)CC[C@]3(CCC(=O)[C@H]32)[C@@H](C)[C@@H]1O.[I-] | 64 | > 64 | 64 | 32 | < 0.031 | > 64 | 0.5 | 2 | 64 | 0.5 | 0.063
C=C[C@]1(C)C[C@@H](OC(=O)CSc2cc[n+](CCCCC(=O)O)cc2)[C@]2(C)[C@H](C)CC[C@]3(CCC(=O)[C@H]32)[C@@H](C)[C@@H]1O.[I-] | > 64 | > 64 | 64 | > 64 | 2 | > 64 | 8 | 16 | 64 | 16 | 4
C=C[C@]1(C)C[C@@H](OC(=O)CSc2cc[n+](Cc3ccc(OC)cc3)cc2)[C@]2(C)[C@H](C)CC[C@]3(CCC(=O)[C@H]32)[C@@H](C)[C@@H]1O.[I-] | 64 | 16 | 64 | 4 | < 0.031 | > 64 | 0.063 | 0.5 | 4 | 0.125 | 0.031
C=C[C@]1(C)C[C@@H](OC(=O)CSc2cc[n+](C(C)C)cc2)[C@]2(C)[C@H](C)CC[C@]3(CCC(=O)[C@H]32)[C@@H](C)[C@@H]1O.[I-] | 64 | 64 | 64 | 64 | 1 | 64 | 0.5 | 2 | 64 | 1 | 2
C=CC[n+]1ccc(SCC(=O)O[C@@H]2C[C@@](C)(C=C)[C@@H](O)[C@H](C)[C@]34CCC(=O)[C@H]3[C@@]2(C)[C@H](C)CC4)cc1.[I-] | 64 | 64 | 64 | 64 | 0.25 | > 64 | 0.5 | 1 | 32 | 1 | 0.25
C=C[C@]1(C)C[C@@H](OC(=O)CSc2cc[n+](CC(=O)NC3CCCC3)cc2)[C@]2(C)[C@H](C)CC[C@]3(CCC(=O)[C@H]32)[C@@H](C)[C@@H]1O.[I-] | 64 | > 64 | 64 | 64 | 1 | > 64 | 4 | 8 | 64 | 4 | 1
C=C[C@]1(C)C[C@@H](OC(=O)CSc2cc[n+](CC(C)C)cc2)[C@]2(C)[C@H](C)CC[C@]3(CCC(=O)[C@H]32)[C@@H](C)[C@@H]1O.[I-] | 64 | 64 | 64 | 64 | 0.25 | > 64 | 0.5 | 2 | 64 | 0.5 | 0.5
C=C[C@]1(C)C[C@@H](OC(=O)CSc2cc[n+](CCCO)cc2)[C@]2(C)[C@H](C)CC[C@]3(CCC(=O)[C@H]32)[C@@H](C)[C@@H]1O.[I-] | 64 | 64 | 64 | 32 | 0.25 | > 64 | 1 | 0.5 | 64 | 1 | 0.5
C=C[C@]1(C)C[C@@H](OC(=O)CSc2cc[n+](CC(=O)O)cc2)[C@]2(C)[C@H](C)CC[C@]3(CCC(=O)[C@H]32)[C@@H](C)[C@@H]1O.[I-] | > 64 | > 64 | > 64 | > 64 | 2 | > 64 | 8 | 32 | 64 | 4 | 2
C=C[C@]1(C)C[C@@H](OC(=O)CSc2cc[n+](CCCCCC(=O)O)cc2)[C@]2(C)[C@H](C)CC[C@]3(CCC(=O)[C@H]32)[C@@H](C)[C@@H]1O.[I-] | > 64 | > 64 | 64 | > 64 | 4 | > 64 | 8 | 32 | 64 | 16 | 8
C=C[C@]1(C)C[C@@H](OC(=O)CSc2cc[n+](CC(=O)NCCc3ccc(O)cc3)cc2)[C@]2(C)[C@H](C)CC[C@]3(CCC(=O)[C@H]32)[C@@H](C)[C@@H]1O.[I-] | 64 | > 64 | 64 | 32 | 0.25 | > 64 | 0.5 | 1 | 64 | 0.5 | 0.25
C=CCC[n+]1ccc(SCC(=O)O[C@@H]2C[C@@](C)(C=C)[C@@H](O)[C@H](C)[C@]34CCC(=O)[C@H]3[C@@]2(C)[C@H](C)CC4)cc1.[I-] | 64 | 64 | 32 | 16 | 0.125 | 64 | 0.25 | 0.25 | 16 | 0.25 | 0.25
